For assay [1], the target named is T1, WT mouse TRPV3 (Mus musculus, UniProt Q8K424).
T1 construct: expressed in transfected cells; host or cells: Xenopus laevis oocytes (cRNA injection, pGEM-HE vector)
T1 sequence (Q8K424 1-791): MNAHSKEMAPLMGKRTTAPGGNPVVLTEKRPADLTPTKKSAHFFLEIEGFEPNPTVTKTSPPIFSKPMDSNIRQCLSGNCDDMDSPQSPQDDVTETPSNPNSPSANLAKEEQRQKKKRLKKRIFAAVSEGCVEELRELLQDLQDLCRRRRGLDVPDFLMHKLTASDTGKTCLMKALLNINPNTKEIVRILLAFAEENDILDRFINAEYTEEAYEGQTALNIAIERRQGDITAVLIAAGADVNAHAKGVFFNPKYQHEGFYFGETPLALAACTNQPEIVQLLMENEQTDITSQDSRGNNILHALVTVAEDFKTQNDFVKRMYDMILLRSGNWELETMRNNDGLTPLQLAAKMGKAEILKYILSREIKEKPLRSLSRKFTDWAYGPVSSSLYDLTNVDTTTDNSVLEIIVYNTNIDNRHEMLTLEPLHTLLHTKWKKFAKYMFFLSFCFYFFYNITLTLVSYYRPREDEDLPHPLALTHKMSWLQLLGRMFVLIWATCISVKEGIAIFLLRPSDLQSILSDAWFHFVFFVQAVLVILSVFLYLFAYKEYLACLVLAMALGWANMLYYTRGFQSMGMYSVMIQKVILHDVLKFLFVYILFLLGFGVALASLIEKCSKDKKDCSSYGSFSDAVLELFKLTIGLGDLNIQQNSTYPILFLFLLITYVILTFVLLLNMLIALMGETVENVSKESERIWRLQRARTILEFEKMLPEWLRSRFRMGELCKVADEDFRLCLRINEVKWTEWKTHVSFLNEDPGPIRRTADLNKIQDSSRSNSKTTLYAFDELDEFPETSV
Type of assay: cell-based. As to the method: (§1) All channel constructs were expressed in Xenopus laevis oocytes and studied using the two-electrode voltage clamp technique (TEVC) following 1–4 days of incubation after cRNA injection. The animal care and experimental procedures were performed in accordance with the Guide for the Care and Use of Laboratory Animals and were approved by the Animal Care and Use Committee of the National Institute of Neurological Disorders and Stroke (Animal protocol number 1253–17). Oocytes were removed surgically and incubated with agitation for 1 hr in a solution containing (in mM) 82.5 NaCl, 2.5 KCl, 1 MgCl2, 5 HEPES, pH 7.6 (with NaOH), and collagenase (2 mg/ml; Worthington Biochemical, Lakewood, NJ). Defolliculated oocytes were injected with cRNA for each of the constructs and incubated at 17°C in a solution containing (in mM) 96 NaCl, 2 KCl, 1 MgCl2, 1.8 CaCl2, 5 HEPES, pH 7.6 (with NaOH), and gentamicin (50 μg/ml, GIBCO-BRL, Gaithersburg, MD). Oocyte membrane voltage was controlled using an OC-725C oocyte clamp (Warner Instruments, Hamden, CT). Data were filtered at 1–3 kHz and digitized at 20 kHz using pClamp software (Molecular Devices, Sunnyvale, CA) and a Digidata 1440A digitizer (Axon Instruments). Microelectrode resistances were 0.1–1 MΩ when filled with 3 M KCl. For recording TRP channel currents, the external recording solution contained (in mM) 100 KCl, 10 HEPES, pH 7.6 (with KOH). Experiments were performed at room temperature (~22°C), except as indicated otherwise. […] Current time courses were obtained by stepping membrane voltage every 2 s from a holding potential of 0 mV to either −60 or +60 mV for 100 ms, and plotting the mean steady-state current at the end of each voltage step as a function of total recording time. I-V relations were obtained similarly, but voltage was stepped every 2 s to a different value, in 10 mV increments and starting at −60 mV.
(§2) For temperature-activation experiments, calcium-activated chloride currents were minimized by using calcium-free solution containing 30 µM Caccinh-A01 and recording at negative membrane voltages. Heat stimuli were achieved by passing the external recording solution through glass capillary spirals immersed in a water bath maintained at about 70°C, and recordings were performed during constant perfusion with temperature measured using a thermistor (TA-29, Warner Instruments) located close to the cell. The thermistor was connected to the digitizer via a temperature controller (TC-324B, Warner Instruments) ([Zhang et al., 2018]). Oocytes injected with the various constructs were only studied if un-injected oocytes from the same batch contained a low density of endogenous temperature-sensitive currents at negative membrane voltages. For delivering cold stimuli, the external solution was passed through glass capillary spirals that were immersed in an ice bath. The mean I vs T relations were calculated by automatically binning each of the recordings in temperature intervals of 2°C, and averaging a single data point within each interval per cell. All data analysis was carried out using Igor Pro 6.3 (Wavemetrics, Portland, OR). Q10 values were obtained from Q10 = 10^10 x m, where m is the slope of linear fits to normalized log(current) vs temperature relations (not shown) over temperature intervals ~ 20–34°C or 38 – 45°C ([Zhang et al., 2018]).

Assay [2] concerns the target T2, mouse TRPV3-6M (Mus musculus, UniProt Q8K424, A560T/F522S/H523E/L557M/Q580E/W521Y).
T2 construct: expressed in transfected cells; host or cells: Xenopus laevis oocytes
T2 sequence (Q8K424 1-791 W521Y/F522S/H523E/L557M/A560T/Q580E): T1 sequence (Q8K424 1-791) with W521Y, F522S, H523E, L557M, A560T, Q580E
Type of assay: cell-based. Conditions: for channel activation (current response): RTx 100 nM, 2-APB 3 mM, room temperature, ±60 mV. As to the method: as §1, §2

Consider two molecules from publication PMC6333442, “Conserved allosteric pathways for activation of TRPV3 revealed through engineering vanilloid-sensitivity” (eLife, 2019).

Substitutions are numbered along the chain they refer to.

By EC50 is commonly meant the concentration that produces a half-maximal response.

`NCCOB(c1ccccc1)c1ccccc1` [2-APB, 2-aminoethoxydiphenyl borate]: the “channel activation (current response)” value is “robust responses” in assay [1] (2-APB 3 mM, room temperature) and “robust responses” in assay [2]. Further, the “s (slope) of Hill fit, 2-APB concentration-response” value in assay [1] (-60 mV) worked out at 2.63. Besides, the EC50 in assay [1] (-60 mV, room temperature, Hill fit, read-out: apparent affinity (EC50) for activation by 2-APB) stood at 464 ± 12 µM.

Regarding `C=C(C)[C@]12C[C@@H](C)[C@@]34O[C@](Cc5ccccc5)(O[C@@H]1[C@@H]3C=C(COC(=O)Cc1ccc(O)c(OC)c1)C[C@]1(O)C(=O)C(C)=C[C@@H]41)O2` [RTx, resiniferatoxin], the “channel activation by RTx after 2-APB pre-stimulation” value in assay [1] (RTx 100 nM after short stimulation with 2-APB (3 mM)) was “did not activate”; in assay [2] (RTx 100 nM after short stimulation with saturating 2-APB (3 mM)) it was “robust activation”. Besides, the “channel activation by RTx together with heating” value in assay [1] (RTx 100 nM with heating) is “did not elicit any response”; in assay [2] (RTx 100 nM with short heating pulse, temperatures slightly above room temperature), “prominent activation”. Besides, the “channel activation (current response)” value in assay [2] was “insensitive”.
